Compound	melting point [°C]
CC(=O)CN1CCC(CCN2CCN(c3cccc(C(C)O)c3)CC2)CC1 (centres unmarked) [Example 606, 1-[4-(2-{4-[3-(1-Hydroxyethyl)phenyl]piperazin-1-yl}ethyl)piperidin-1-yl]propan-2-one]	97
N#CCCCC(=O)N[C@H]1CC[C@H](CCN2CCN(c3ccc4c(c3)OCO4)CC2)CC1 [Example 365, N-{4-[2-(4-Benzo[1,3]dioxol-5-ylpiperazin-1-yl)ethyl]cyclohexyl}-4-cyanobutanamide]	189
NC(=O)CCC(=O)N[C@H]1CC[C@H](CCN2CCN(c3ccc(F)c(Cl)c3F)CC2)CC1 [Example 602, N-(4-{2-[4-(3-Chloro-2,4-difluorophenyl)piperazin-1-yl]ethyl}cyclohexyl)succinamide]	257
N#CCCCC(=O)N[C@H]1CC[C@H](CCN2CCN(c3ccc(F)c(C#N)c3F)CC2)CC1 [Example 688, 4-Cyano-N-(4-{2-[4-(3-cyano-2,4-difluorophenyl)piperazin-1-yl]ethyl}cyclohexyl)butanamide]	203
N#CCCCC(=O)N[C@H]1CC[C@H](CCN2CCN(c3cc(F)ccc3F)CC2)CC1 [Example 442, 4-Cyano-N-(4-{2-[4-(2,5-difluorophenyl)piperazin-1-yl]ethyl}cyclohexyl)butanamide]	159
CC(=O)CN1CCC(CCN2CCN(c3cccc(C)c3)CC2)CC1.Cl.Cl	260
N#Cc1cccc(C2=CCN(CC[C@H]3CC[C@H](NC(=O)CCC(F)(F)F)CC3)CC2)c1	177
Cl.Cl.O=C(N[C@H]1CC[C@H](CCN2CCN(c3ccc(F)cc3F)CC2)CC1)[C@@H]1CCCN1 (stereo in doubt)	260
N#CCC(=O)N[C@H]1CC[C@H](CCN2CC=C(c3cc(C(F)(F)F)ccc3F)CC2)CC1	168
Cc1ccccc1N1CCN(CC[C@H]2CC[C@H](NC(=O)C3=CCCC3)CC2)CC1 [Example 556, Cyclopent-1-enecarboxylic acid {4-[2-(4-o-tolylpiperazin-1-yl)ethyl]cyclohexyl} amide]	181
O=C(N[C@H]1CC[C@H](CCN2CCN(c3ccc(Cl)c(Cl)c3)CC2)CC1)C1=CCCC1 [Example 486, Cyclopent-1-enecarboxylic acid (4-{2-[4-(3,4-dichlorophenyl)piperazin-1-yl]ethyl}cyclohexyl) amide]	202
CC(=O)CN1CCC(CCN2CCN(c3ccc(F)c(C#N)c3)CC2)CC1 [Example 659, 2-Fluoro-5-(4-{2-[1-(2-oxopropyl)piperidin-4-yl]ethyl}piperazin-1-yl)benzonitrile]	102
N#CCCCC(=O)N[C@H]1CC[C@H](CCN2CCN(c3ccc(Cl)c(Cl)c3F)CC2)CC1 [Example 520, 4-Cyano-N-(4-{2-[4-(3,4-dichloro-2-fluorophenyl)piperazin-1-yl]ethyl}cyclohexyl)butanamide]	199
N#CCCCC(=O)N[C@H]1CC[C@H](CCN2CCN(c3cc(F)cc(Cl)c3)CC2)CC1 [Example 259, N-(4-{2-[4-(3-Chloro-5-fluorophenyl)piperazin-1-yl]ethyl}cyclohexyl)-4-cyanobutanamide]	158 to 159
CC(=O)CN1CCC(CCN2CCN(c3cc(Cl)cc(Cl)c3)CC2)CC1 [Example 311, 1-(4-{2-[4-(3,5-Dichlorophenyl)-piperazin-1-yl]ethyl}piperidin-1-yl)propan-2-one]	126
Cc1cc(N2CCN(CC[C@H]3CC[C@H](NC(=O)CC#N)CC3)CC2)c(Cl)cc1F [Example 389, N-(4-{2-[4-(2-Chloro-4-fluoro-5-methylphenyl)piperazin-1-yl]ethyl}cyclohexyl)-2-cyanoacetamide]	177
CC(=O)CN1CCC(CCN2CC=C(c3ccccc3C)CC2)CC1.Cl.Cl	292

More lines, now with the values ahead:

melting point [°C]	Compound
176	N#Cc1cccc(N2CCN(CC[C@H]3CC[C@H](NC(=O)CCC(F)(F)F)CC3)CC2)c1 [Example 653, N-(4-{2-[4-(3-Cyanophenyl)piperazin-1-yl]ethyl}cyclohexyl)-4,4,4-trifluorobutanamide]
231	N#CCC(=O)N[C@H]1CC[C@H](CCN2CCN(c3cc(F)c(C(F)(F)F)c(F)c3)CC2)CC1 [Example 574, 2-Cyano-N-(4-{2-[4-(3,5-difluoro-4-trifluoromethylphenyl)piperazin-1-yl]ethyl}cyclohexyl) acetamide]
173	COCCCC(=O)N[C@H]1CC[C@H](CCN2CCN(c3cccc(C(F)(F)F)c3C)CC2)CC1 [Example 735, 4-Methoxy-N-(4-{2-[4-(2-methyl-3-trifluoromethylphenyl)piperazin-1-yl]ethyl}cyclohexyl)butanamide]
245	CC(C)(C)OC(=O)CN1CCC(CCN2CCN(c3cccc(C(F)(F)F)c3)CC2)CC1.Cl.Cl
149	N#CCCCC(=O)N[C@H]1CC[C@H](CCN2CCN(c3cccc(C(F)(F)F)c3)CC2)CC1 [Example 161, 4-Cyano-N-(4-{2-[4-(3-trifluoromethylphenyl)piperazin-1-yl]ethyl}cyclohexyl)butanamide]
175	COCCCC(=O)N[C@H]1CC[C@H](CCN2CCN(c3ccc(Cl)c(Cl)c3)CC2)CC1 [Example 502, N-(4-{2-[4-(3,4-Dichlorophenyl)piperazin-1-yl]ethyl}cyclohexyl)-4-methoxybutanamide]
157	CCC(O)c1cccc(N2CCN(CC[C@H]3CC[C@H](NC(=O)CC#N)CC3)CC2)c1 (some centres unmarked) [Example 566, 2-cyano-N-[4-(2-{4-[3-(1-hydroxypropyl)phenyl]piperazin-1-yl}ethyl)cyclohexyl]acetamide]
244	NC(=O)CCC(=O)N[C@H]1CC[C@H](CCN2CCN(c3cccc(C(F)(F)F)c3F)CC2)CC1 [Example 459, N-(4-{2-[4-(2-Fluoro-3-trifluoro-methylphenyl)piperazin-1-yl]ethyl}cyclohexyl)succinamide]
133 to 134	N#CCCCC(=O)N[C@H]1CC[C@H](CCN2CCN(c3cccc(OC(F)(F)F)c3)CC2)CC1 [Example 206, 4-Cyano-N-(4-{2-[4-(3-trifluoromethoxyphenyl)piperazin-1-yl]ethyl}cyclohexyl)butanamide]
197	N#CCCCC(=O)N[C@H]1CC[C@H](CCN2CCN(c3cccc(F)c3F)CC2)CC1 [Example 445, 4-Cyano-N-(4-{2-[4-(2,3-difluorophenyl)piperazin-1-yl]ethyl}cyclohexyl)butanamide]
148	N#CCCC(=O)N[C@H]1CC[C@H](CCN2CCN(c3cc(F)cc(Cl)c3)CC2)CC1 [Example 743, N-(4-{2-[4-(3-Chloro-5-fluorophenyl)piperazin-1-yl]ethyl}cyclohexyl)-3-cyanopropanamide]
169	NC(=O)CCC(=O)N[C@H]1CC[C@@H](CCN2CCN(c3cccc(F)c3)CC2)CC1 [Example 398, N-(4-{2-[4-(3-Fluorophenyl)-piperazin-1-yl]ethyl}cyclohexyl)-succinamide]
190	CC(O)c1cccc(N2CCN(CC[C@H]3CC[C@H](NC(=O)CC(F)(F)F)CC3)CC2)c1 (some centres unmarked) [Example 477, 3,3,3-trifluoro-N-[4-(2-{4-[3-(1-hydroxyethyl)phenyl]piperazin-1-yl}ethyl)cyclohexyl]propanamide]
182	O=C(CCC(F)(F)F)N[C@H]1CC[C@H](CCN2CCN(c3cc(C(F)(F)F)ccc3F)CC2)CC1 [Example 736, 4,4,4-Trifluoro-N-(4-{2-[4-(2-fluoro-5-trifluoromethyl-phenyl)piperazin-1-yl]ethyl}cyclohexyl)butanamide]
207	O=C(CC(F)(F)F)N[C@H]1CC[C@H](CCN2CCN(c3ccccc3F)CC2)CC1 [Example 87, 3,3,3-Trifluoro-N-(4-{2-[4-(2-fluorophenyl)piperazin-1-yl]ethyl}cyclohexyl)propanamide]
100	COCC(=O)N[C@H]1CC[C@H](CCN2CCN(c3ccccc3Cl)CC2)CC1 [Example 129, N-(4-{2-[4-(2-Chlorophenyl)-piperazin-1-yl]ethyl}cyclohexyl)-2-methoxyacetamide]
165	N#CCC(=O)N[C@H]1CC[C@H](CCN2CCN(c3cccc(SC(F)(F)F)c3)CC2)CC1 [Example 343, 2-Cyano-N-(4-{2-[4-(3-trifluoromethylsulfanylphenyl)piperazin-1-yl]ethyl}cyclohexyl)-acetamide]
123	COCC(=O)N[C@H]1CC[C@H](CCN2CCN(c3cccc(C(F)(F)F)c3)CC2)CC1 [Example 41, 2-Methoxy-N-(4-{2-[4-(3-trifluoromethylphenyl)piperazin-1-yl]ethyl}cyclohexyl)acetamide]
210	CCc1ccc(N2CCN(CC[C@H]3CC[C@H](NC(=O)CC#N)CC3)CC2)cc1 [Example 285, 2-Cyano-N-(4-{2-[4-(4-ethylphenyl)piperazin-1-yl]ethyl}cyclohexyl)acetamide]
278	Cl.N#CCC(=O)N[C@H]1CC[C@H](CCN2CCN(c3ccccc3C(F)(F)F)CC2)CC1
171 to 172	Cc1ccc(Cl)cc1N1CCN(CC[C@H]2CC[C@H](NC(=O)CC#N)CC2)CC1 [Example 155, N-(4-{2-[4-(5-Chloro-2-methylphenyl)piperazin-1-yl]ethyl}cyclohexyl)-2-cyanoacetamide]
200	Cc1cccc(N2CCN(CC[C@H]3CC[C@H](NC(=O)C4CC=CC4)CC3)CC2)c1 [Example 379, Cyclopent-3-enecarboxylic acid {4-[2-(4-m-tolylpiperazin-1-yl)ethyl]cyclohexyl}]
185	N#CCC(=O)N[C@H]1CC[C@H](CCN2CCN(c3cccc(C(F)F)c3)CC2)CC1 [Example 354, 2-Cyano-N-(4-{2-[4-(3-difluoromethylphenyl)piperazin-1-yl]ethyl}cyclohexyl)acetamide]
136	COCC(=O)N[C@H]1CC[C@H](CCN2CCN(c3cccc(C)c3C#N)CC2)CC1 [Example 49, N-(4-{2-[4-(2-Cyano-3-methylphenyl)piperazin-1-yl]ethyl}cyclohexyl)-2-methoxyacetamide]

Reference: patent US8802678B2, “Carbonylated (aza) cyclohexanes as dopamine D3 receptor ligands” (Bioprojet, priority 2006, dated 2014)
